The source of these data is patent US20160032269A1, “BUFFERS FOR USE WITH POLYMERASES” (priority 2014, published 2016).

Data set [1] has as its system polymerase derived from two parental polymerases, Pfu and DeepVent, and fused with an Sso7d. As to the kind of experiment: Effect of surfactant additives on PCR yield (agarose gel). The data set is classed as biochemical. Particulars: for PCR yield: additive in PCR reaction mixture, 20 ng template DNA, FIG. 1. The procedure: The effect of various surfactants on polymerase activity and yield in a PCR reaction mixture was tested. A polymerase derived from two parental polymerases, Pfu and DeepVent, and fused with an Sso7d, was formulated in a variety of reaction mixtures in an effort to identify reaction components that improve PCR yield.
A reaction mixture comprising polymerase, Tris-HCL pH 9.0, KCl, ammonium sulfate, 20 ng template DNA and target primers was tested with one or more additional components added as follows (results shown in FIG. 1):
Ranges of concentration of CTAB and SDS were tested and additional components such as octyl b-D-glucopyranoside (OGP) and bovine serum albumin (BSA) were also tested. See, FIG. 2. The lanes of FIG. 2. are described in Table 2 below:
(§1) In view of the surprising success of the reaction mixture comprising SDS and CTAB, a 5× stock solution was generated.

Data set [2] can be described thus: Precipitate formation in 5× stock solution. The data set is classed as physicochemical.
Text: as §1

“Also recorded” adds a separate entry of the source.

`CCCCCCCCCCCCCCCC[N+](C)(C)C.[Br-]` [CTAB, cetyl trimethylammonium bromide]: the PCR yield entry in data set [1] was “did not improve PCR yield; also recorded: does not provide any apparent benefit”. Turning to `CCCCCCCCCCCCOS(=O)(=O)[O-].[Na+]` [SDS, sodium dodecyl sulfate], the PCR yield result in data set [1] (sulfate) is recorded as “did not improve PCR yield; also recorded: does not provide any apparent benefit”. Consider `C[C@H](CCC(=O)NCCC[N+](C)(C)CCCS(=O)(=O)[O-])[C@H]1CC[C@H]2[C@@H]3[C@H](O)C[C@@H]4C[C@H](O)CC[C@]4(C)[C@H]3C[C@H](O)[C@]12C` [CHAPS, 3-[(3-cholamidopropyl)dimethylammonio]-1-propanesulfonate], for which, in data set [1] (CHAPS in 5× stock solution used in PCR reactions, data not shown), the “interference with PCR” value is “did not interfere with PCR”. Moreover, the results for the “precipitate in stock solution” value in data set [2] (5× stock solution contained 1% CHAPS) and in data set [2] (CHAPS added to the 5× stock solution) were “no precipitate was observed” and “prevented formation of a precipitate”, respectively.
